Reference: US12636261B2, “Treatment of inflammation initiated by the spinal cord injury, the traumatic brain injury, stroke, in inhibition of cerebral and spinal cord edema and of inflammation in neurodegenerative, immune mediated and infectious diseases of the central nervous system” (priority 2021, dated 2026)
Read-outs that look alike come from different tables or passages of the source.

Assays:
[1] = cited from earlier work
[2] = cited from earlier work; for bioavailability: Wistar rats
[3] = Body Weight Change after the SCI surgery; type: in vivo, rat (Long Evans); settings: 5 mg/rat/day oral
Description: The Body Weight Change after the SCI surgery is recorded every 3rd day [Kwiecien et al, 2019, 2020b 2021c].
(§1) Healthy male Long Evans rats aged 12 weeks, 330-360 g, were offered a fruit flavored jello cube twice a day for 1 week prior to the surgery and were separated in individual cages 3 days before the surgery. Rats were induced with 5% isoflurane in 95% oxygen flowing at a rate of 1 liter per minute and maintained at 3.5% isoflurane in 96.5% oxygen. The anaesthetized rats had the skin on the back shaved and prepared for surgery with 70% ethyl alcohol and 10% iodine swabs. The skin was cut over the caudal thoracic and lumbar spine and spinal muscles dissected from the vertebral spine of the thoracic 10 (T10) vertebrum and the dorsal arches of this vertebrum removed. A 3Fogarty catheter was inserted via this laminectomy over the intact dura towards the head to place the caudal edge of the 3 mm long balloon at 1 cm rostral to the laminectomy. […] In the initial experiment designed to determine the anti-inflammatory effect of 0.2, 1.0 and 5 mg per day of xanthohumol (Sigma-Aldrich) after the surgery, the rats were offered a jello cube with half of the above dose twice a day, at 8-9 hours and 15-16 hours intervals, and the consumption of the jello cube was observed and recorded every day for 7 days. […]

[4] = test system: rat model of SCI (balloon crush spinal cord injury); test: Hind End Locomotor test in the rat model of SCI; type: in vivo, rat (Long Evans); settings: 5 mg/rat/day oral (2.5 mg twice a day in jello), treatment groups 2-8 weeks post-SCI; ANOVA
Description: In the Hind End Locomotor test, performed once every day in unrestrained rats in the cage, the motor function is measured with movements of both hind legs scored 0-6 with 0=complete paralysis and 6=normal gait [Kwiecien et al, 2019, 2020b, 2020c].
as §1, with “removed.” for “removed. A 3Fogarty catheter was inserted via this laminectomy over the intact dura towards the head to place the caudal edge of the 3 mm long balloon at 1 cm rostral to the laminectomy.”
1. […] The motor function of the hind limbs was scored from 0-6 where 0=complete paralysis of both hind legs and 6=normal locomotion.

[5] = test system: rats; settings: cited from earlier work
[6] = cited from earlier work; remark: listed apart in the source
[7] = test system: rat model of SCI (balloon crush spinal cord injury); test: Toe Pinch Withdrawal test in the rat model of SCI; type: in vivo, rat (Long Evans); settings: 5 mg/rat/day oral, treatment groups 2-8 weeks post-SCI; ANOVA
Excerpt: In the Toe Pinch Withdrawal test, performed once every day in rats held by the tail, the sensory function and the strength of both hind limbs are scored 0-6 with 0=complete loss of reaction to the toe pinch and 6=strong, normal withdrawal in both legs after the toe pinch [Kwiecien et al, 2019, 2020b, 2020c].
Healthy male Long Evans rats aged 12 weeks, 330-360 g, were offered a fruit flavored jello cube twice a day for 1 week prior to the surgery and were separated in individual cages 3 days before the surgery. Rats were induced with 5% isoflurane in 95% oxygen flowing at a rate of 1 liter per minute and maintained at 3.5% isoflurane in 96.5% oxygen. […] In the initial experiment designed to determine the anti-inflammatory effect of 0.2, 1.0 and 5 mg per day of xanthohumol (Sigma-Aldrich) after the surgery, the rats were offered a jello cube with half of the above dose twice a day, at 8-9 hours and 15-16 hours intervals, and the consumption of the jello cube was observed and recorded every day for 7 days. […]
2. The Toe Pinch Withdrawal test [Kwiecien et al, 2021c] was performed once a day in rats held by the tail in the cage and the presence and strength of both hind legs scored 0-6 where 0=no response to the toe pinch and 6=strong, normal withdrawal response to the toe pinch in both legs.

[8] = test system: rat model of SCI (balloon crush spinal cord injury); test: Duration of Paralysis of the Urinary Bladder in SCI rats; type: in vivo, rat (Long Evans); settings: 5 mg/rat/day oral
Excerpt: as §1
4. The duration of the distention of the urinary bladder that required manual voiding until the normal function of the urinary bladder was restored, in days, was recorded.

[9] = test system: mice; settings: cited from earlier work
[10] = test system: SCI rats; test: Toxicity observation in SCI rats under oral xanthohumol; type: in vivo; settings: twice a day, 5 mg per day (approx. 15 mg/kg), up to 8 weeks
Excerpt: as §1, with “laminectomy. The balloon was inflated with 15 µL of sterile saline for 3 minutes, then deflated and the catheter removed.” for “laminectomy.”

[11] = test system: phagocytic macrophages in the cavity of injury (COI); test: Macrophage Count in the Cavity of Injury (COI), histology LFB+H&E; type: in vivo, rat (Long Evans); settings: for macrophage numbers in the COI, % of the untreated controls (100%): 7 days post-SCI
Description: The histologic examination is performed in the series of consecutive sections, […], of the spinal cord including the lesion, stained with luxol fast blue and counterstained with hematoxylin and eosin (LFB+H&E). A necrotic and hemorrhagic lesion deep in the spinal cord is infiltrated starting at the day 3, by numerous inflammatory, CD68+/CD163− macrophages that phagocytize myelin-rich necrotic debris and red blood cells. The numbers of macrophages rapidly increase and remain high for 4 weeks after SCI after which they gradually decline [Kwiecien et al, 2020a]. Within the first week post-SCI the deep lesion is transformed into a cavity of injury (COI) when it starts to accumulate excess water from edema in the surrounding spinal cord [Kwiecien et al, 2020a, 2021d]. The macrophage count is performed in a COI in the injured spinal cord of untreated and treated rats in a standardized fashion at fixed periods of time post-surgery to determine a degree of reduction of macrophage numbers related to a tested anti-inflammatory agent [Kwiecien et al, 2019; 2020a, 2020b, 2021c]. This reduction in numbers of macrophages plotted against such numbers in controls is reliably indicative of a therapeutic effect of an anti-inflammatory agent.
Healthy male Long Evans rats aged 12 weeks, 330-360 g, were offered a fruit flavored jello cube twice a day for 1 week prior to the surgery and were separated in individual cages 3 days before the surgery. Rats were induced with 5% isoflurane in 95% oxygen flowing at a rate of 1 liter per minute and maintained at 3.5% isoflurane in 96.5% oxygen. The anaesthetized rats had the skin on the back shaved and prepared for surgery with 70% ethyl alcohol and 10% iodine swabs. The skin was cut over the caudal thoracic and lumbar spine and spinal muscles dissected from the vertebral spine of the thoracic 10 (T10) vertebrum and the dorsal arches of this vertebrum removed. A 3Fogarty catheter was inserted via this laminectomy over the intact dura towards the head to place the caudal edge of the 3 mm long balloon at 1 cm rostral to the laminectomy. The balloon was inflated with 15 µL of sterile saline for 3 minutes, then deflated and the catheter removed. The spinal muscles were closed with absorbable sutures over the laminectomy and the skin incision was closed with stainless steel staples. Before awakening, the rats were administered; 50 μL of a painkiller Anafen (ketoprofen, 100 mg/mL, Merial) subcutaneously for pain, and 50 µL of Baytril antibiotic (enrofloxacin 50 mg/mL, Bayer) intramuscular, and 3 mL of saline subcutaneous. In the initial experiment designed to determine the anti-inflammatory effect of 0.2, 1.0 and 5 mg per day of xanthohumol (Sigma-Aldrich) after the surgery, the rats were offered a jello cube with half of the above dose twice a day, at 8-9 hours and 15-16 hours intervals, and the consumption of the jello cube was observed and recorded every day for 7 days. Each treatment group had 5 rats. In the second phase of the experiment 1 jello cube alone or jello cube with 2.5 mg xanthohumol was offered twice a day for 1, 2, 4, 6, and 8 weeks. Each treatment group had 6-7 rats.
At a required experimental time point; 1, 2, 4, 6, or 8 weeks post-surgery, the SCI rats were overdosed with the sodium pentobarbital (80 mg/kg b.w.) administered intraperitoneally. When in deep plane of anaesthesia, the chest was cut open, 100 international units of heparin sodium injected into the left heart ventricle and a cannula with flowing lactated Ringer's solution inserted into the left ventricle while the right auricle was cut open. After the blood was washed out, the flow of the lactated Ringer's solution was replaced by that of phosphate buffered formalin and the carcass was fixed.
The spine was removed, postfixed in formalin overnight and then placed in formalin supplemented with 8% EDTA, pH 7.0, to decalcify the spinal vertebrae. The decalcifying solution was replaced by fresh one every 2 days for 2 weeks. […]

## COc1cc(O)c(CC=C(C)C)c(O)c1C(=O)/C=C/c1ccc(O)cc1 [xanthohumol, 2′,4′,4-trihydroxy-6′-methoxy-3′-prenylchalcone]
[1]
  bioavailability after oral administration: approximately 1%
[2]; 10 mg/kg intravenously
  half-life: 7.67 h
[2]; oral 40 mg/kg
  bioavailability: 1.16%
[2]; oral 200 mg/kg
  bioavailability: 0.53%
[3]; groups 1, 2 and 8 weeks post-SCI
  body weight change vs untreated controls: no statistical difference
[3]; groups treated for 4 and 6 weeks
  body weight recovery post-surgery vs untreated controls: recovered statistically sooner and to a greater degree
[4]
  Hind End Locomotor test score (0-6) vs untreated rats: significantly higher scores
[5]; 16.9 mg/kg body weight daily oral
  toxic effect of daily oral administration: no toxic effect
[5]
  toxicity after long administration of large doses: no toxicity
[6]
  solubility in water: poorly
[7]
  Toe Pinch Withdrawal test score (0-6) vs untreated rats: statistically better
[8]; 4 weeks treatment group
  recovery of the urinary bladder function vs untreated rats: significantly faster
[8]; 6 weeks treatment group
  recovery of the urinary bladder function vs untreated rats: tendency for the paralyzed urinary bladder to recover faster than in controls
[9]
  toxicity after long administration of large doses: no toxicity
[10]
  toxicity of xanthohumol: not observed
[11]; 0.2 mg/rat/day oral, not statistically significant
  macrophage numbers in the COI, % of the untreated controls (100%): 73.7%
[11]; 1.0 mg/rat/day oral, p=0.026
  macrophage numbers in the COI, % of the untreated controls (100%): 63.9%
[11]; 5 mg/rat/day oral, 1 week post-SCI, second phase
  macrophage counts in the COI, % of the controls: 57.0%
[11]; 5 mg/rat/day oral, 2 weeks post-SCI
  macrophage counts in the COI, % of the controls: 60.7%
[11]; 5 mg/rat/day oral, 4 weeks post-SCI
  macrophage counts in the COI, % of the controls: 14.1%
[11]; 5 mg/rat/day oral, 6 and 8 weeks post-SCI
  macrophages in the COI on histologic sections (FIG. 7): rare or absent
[11]; 5 mg/rat/day oral, 6 weeks post-SCI
  macrophage counts in the COI, % of the controls: 22.9%
[11]; 5 mg/rat/day oral, 8 weeks post-SCI, not statistically different
  macrophage counts in the COI, % of the controls: 32.7%
[11]; 5.0 mg/rat/day oral, dose-response study, p=0.0013
  macrophage numbers in the COI, % of the untreated controls (100%): 53.8%
